# Test results published in paper PMC5849655 (European Journal of Clinical Pharmacology, 2017).
# Where two headings read alike, the source gives them in different places.
# Legend:
# [1] = Caco-2 permeability (siponimod, reference compound); format: in vitro ADME, human; settings: human, Caco-2; SimCYP V9 input of the siponimod model; read-out: Reference compound permeability
# Method: (§1) Siponimod absorption was predicted based on the permeability of Caco-2 cell (human colon carcinoma cell line) monolayers and considered to be complete (fraction absorbed [fa] = 1). Absorption rate constant (Ka) was calculated from the first clinical data to be 0.98/h. […] A volume of distribution of 2.12 L/kg was estimated based on preclinical data observation. The initial CL estimation of the siponimod model was based on human in vitro data from HLM and recombinant enzyme kinetics [unpublished data]. By using the in vivo clearance (CL/F) together with the fractional contribution of each CYP enzyme (phenotyping data) in the SimCYP retrograde calculator, the enzyme CLint values were estimated, resulting in an improved drug exposure prediction (Table 3).
# [2] = system: Caco-2 cell (human colon carcinoma cell line) monolayers; assay: as above; format: in vitro ADME; settings: SimCYP V12 input of the siponimod model
# Method: as §1
# Caco 2 = settings: cited from earlier work
# [3] = cited from earlier work
# CYP = settings: cited from earlier work
# CYP3A5 = settings: cited from earlier work
# [4] = cited from earlier work; remark: listed apart in the source
# [5] = cited from earlier work; remark: listed apart in the source
# CYP2C19 = CYP2C19 (Homo sapiens, UniProt P33261); settings: cited from earlier work; for Ki: read-out: Competitive inhibition constant, Ki (CYP2C19)
# Sequence of CYP2C19 (P33261 whole entry): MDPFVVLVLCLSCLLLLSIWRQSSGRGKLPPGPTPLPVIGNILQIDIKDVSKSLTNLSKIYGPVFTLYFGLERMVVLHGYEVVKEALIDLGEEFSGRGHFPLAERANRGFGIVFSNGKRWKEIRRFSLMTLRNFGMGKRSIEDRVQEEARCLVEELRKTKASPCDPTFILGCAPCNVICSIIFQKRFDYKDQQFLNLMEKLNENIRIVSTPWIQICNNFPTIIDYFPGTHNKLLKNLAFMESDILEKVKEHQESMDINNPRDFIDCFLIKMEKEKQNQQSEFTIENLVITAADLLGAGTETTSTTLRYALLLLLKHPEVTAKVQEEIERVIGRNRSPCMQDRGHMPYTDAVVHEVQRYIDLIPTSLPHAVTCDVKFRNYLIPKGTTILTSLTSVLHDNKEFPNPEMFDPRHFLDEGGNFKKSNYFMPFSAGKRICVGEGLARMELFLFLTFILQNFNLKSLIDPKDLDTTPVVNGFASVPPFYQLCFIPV
smiles,measurement,setting,value
"CC(C)NCC(O)COc1cccc2ccccc12 (stereo not shown) [Propranolol, reference compound]",Papp,[1],53.3 nm/s
same,Reference compound permeability,[2],Propranolol 5.33 10^-6cm/s
OC(Cn1cncn1)(Cn1cncn1)c1ccc(F)cc1F [fluconazole],"Caco 2 permeability, P Caco 2",Caco 2; ref SimCYP version 9,29.8 10^-6cm/s
same,"Caco 2 permeability, P Caco 2",Caco 2; ref SimCYP version 16,29.8 10^-6cm/s
same,Main plasma binding protein,[3]; ref SimCYP version 9,HSA
same,Main plasma binding protein,[3]; ref SimCYP version 16,HSA
same,Is the compound a CYP inducer?,CYP; ref SimCYP version 9,no
same,Is the compound a MBI?,CYP; ref SimCYP version 9,no
same,Is the compound a CYP inducer?,CYP; ref SimCYP version 16,no
same,Is the compound a MBI?,CYP; ref SimCYP version 16,no
same,"Fraction unbound in vitro, fumic (CYP3A5)",CYP3A5; ref SimCYP version 9,1
same,"Fraction unbound in vitro, fumic (CYP3A5)",CYP3A5; ref SimCYP version 16,1
same,Compound type,[4]; ref SimCYP version 9,monoprotic base
same,Compound type,[4]; ref SimCYP version 16,monoprotic base
same,"In vivo po clearance, CLpo",[5]; ref SimCYP version 9,1.5 L/h
same,"Renal clearance in a 20-30 yr healthy male, CLR",[5]; ref SimCYP version 9,0.865 L/h
same,"Volume of distribution, Vss",[5]; ref SimCYP version 9,0.57 L/kg
same,"In vivo iv clearance, CLiv",[5]; ref SimCYP version 16,1.01 L/h
same,"Renal clearance in a 20-30 yr healthy male, CLR",[5]; ref SimCYP version 16,0.700 L/h
same,"Volume of distribution, Vss",[5]; ref SimCYP version 16,0.748 L/kg
same,"In vivo iv clearance, CLiv","[5]; used in the V9 model, ref SimCYP V7",1.3 (SimCYP V7) L/h
same,"Fraction unbound in vitro, fumic (CYP2C19)",CYP2C19; ref SimCYP version 9,1
same,Ki,CYP2C19; ref SimCYP version 9,2 µM
same,"Fraction unbound in vitro, fumic (CYP2C19)",CYP2C19; ref SimCYP version 16,1
same,Ki,CYP2C19; ref SimCYP version 16,2 µM
